Assay [1] concerns PsA. Kind of assay: Activity of extant antibiotics together with ZnPor (II). The note with it: pre-treated by ZnPor (II).
The subject of assay [2] is PsA biofilms and planktonic cells. Particulars: cited from earlier work.
Assay [3] deals with pqsA mutant biofilms. Particulars: mutant with little to no eDNA; cited from earlier work.

In the case of `CN[C@H](CC(C)C)C(=O)N[C@H]1C(=O)N[C@@H](CC(N)=O)C(=O)N[C@H]2C(=O)N[C@H]3C(=O)N[C@H](C(=O)N[C@H](C(=O)O)c4cc(O)cc(O)c4-c4cc3ccc4O)[C@H](O)c3ccc(c(Cl)c3)Oc3cc2cc(c3O[C@@H]2O[C@H](CO)[C@@H](O)[C@H](O)[C@H]2O[C@H]2C[C@](C)(N)[C@H](O)[C@H](C)O2)Oc2ccc(cc2Cl)[C@H]1O` [Vancomycin, reference compound], the “killing of PsA” value in assay [1] is on record as “kills”.
Consider `C[n+]1ccc(-c2c3nc(c(-c4cc[n+](C)cc4)c4ccc([nH]4)c(-c4cc[n+](C)cc4)c4nc(c(-c5cc[n+](C)cc5)c5ccc2[nH]5)C=C4)C=C3)cc1.Cc1ccc(S(=O)(=O)[O-])cc1.Cc1ccc(S(=O)(=O)[O-])cc1.Cc1ccc(S(=O)(=O)[O-])cc1.Cc1ccc(S(=O)(=O)[O-])cc1` [TMP, 5,10,15,20-tetrakis(1-methylpyridino)-21H,23H-porphine, tetra-p-tosylate salt], for which, in assay [2] (absence of photoactivation), the “toxicity to bacterial cells” value is reported as “little to no toxicity”. For the same compound, in assay [2] (light activation not required), the “effect on antibiotic sensitivity of biofilm-associated cells” value is “sensitive to tobramycin, gentamycin, and vancomycin”. In assay [2] (when photoactivated), the “efficacy against PsA biofilms and planktonic cells” value is “highly effective”. Moreover, the “effect on PsA biofilms” value in assay [2] (without light activation) is “disruption and detachment from the substrata”. In assay [3], the “effect on pqsA mutant biofilms” value was “no effect”.

The values above are taken from US11975009B2, “Use of zinc porphyrin as an antimicrobial” (ZNABLE LLC, priority 2022, dated 2024).
